From patent EP0272929B1, “Enkephalinase for therapeutic use” (GENENTECH, INC., priority 1986, dated 1988) come the findings set out here.

“Also recorded” adds a separate entry of the source.

One assay addresses T1, enkephalinase (Mustela putorius furo, UniProt M3XUG8).
T1 sequence (M3XUG8 2-749): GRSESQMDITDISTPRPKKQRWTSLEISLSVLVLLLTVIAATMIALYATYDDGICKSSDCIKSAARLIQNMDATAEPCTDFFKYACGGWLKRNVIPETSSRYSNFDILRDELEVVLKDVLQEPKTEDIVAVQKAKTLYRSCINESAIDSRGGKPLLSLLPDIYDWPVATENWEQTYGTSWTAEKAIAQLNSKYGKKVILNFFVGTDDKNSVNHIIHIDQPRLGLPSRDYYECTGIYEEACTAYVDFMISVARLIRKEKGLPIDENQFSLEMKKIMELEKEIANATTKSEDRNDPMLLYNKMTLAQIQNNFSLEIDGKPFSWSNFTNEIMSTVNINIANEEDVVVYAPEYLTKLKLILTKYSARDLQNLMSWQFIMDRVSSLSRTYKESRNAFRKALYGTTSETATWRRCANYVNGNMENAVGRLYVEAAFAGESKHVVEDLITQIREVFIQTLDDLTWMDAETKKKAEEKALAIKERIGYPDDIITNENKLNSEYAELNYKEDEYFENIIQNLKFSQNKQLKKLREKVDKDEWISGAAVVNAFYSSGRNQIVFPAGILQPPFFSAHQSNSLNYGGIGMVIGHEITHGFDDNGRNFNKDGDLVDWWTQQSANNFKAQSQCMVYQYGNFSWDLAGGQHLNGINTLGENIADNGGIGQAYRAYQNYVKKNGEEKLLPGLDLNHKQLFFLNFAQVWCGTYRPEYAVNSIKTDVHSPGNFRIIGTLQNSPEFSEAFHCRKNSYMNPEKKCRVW
In words: Enkephalinase activity of tissue membrane fractions: cleavage of (3H-Tyr1,DAla2,Leu5)enkephalin, inhibition by inhibitors and substrates. Format: biochemical, ferret. Here is the method: In this series of experiments, the tissue locations of enkephalinase were determined. Enkephalinase was purified from the ferret kidney to near homogeneity using published methods (Malfroy and Schwartz, Supra). Enkephalinase activity in membrane fractions derived from the vagus nerve, tracheal epithelium, submucosa, muscle, lungs, and kidneys of ferrets was determined. Ferrets were anesthetized, and the vagi, trachea, lungs, and kidneys removed. The tracheal epithelium, submucosa, and muscle were separated from each other by incubating the trachea in Ca⁺⁺-free medium for 15 minutes, after which time, the epithelium was easily removed. The muscle was then separated from the gland-containing submucosa. Each tissue was minced and then homogenized in 50mM HEPES buffer (pH 7.4) using a Polytron homogenizer.
Enkephalinase activity was measured by determining the rates of cleavage of (³H-Tyr¹, DAla², Leu⁵)enkephalin (Research Products International) by membrane fractions or purified enkephalinase. Fifty µl of membrane fraction was incubated for 40 minutes at room temperature with 50 µl of buffer containing (³H-Tyr¹, DAla²,Leu⁵)enkephalin (20nM), after which time the reaction was quenched by adding 50 µl of 2N HCl.
Seventy-five µl of this solution was applied to columns containing polystyrene beads (Poropak-Q); the characteristic metabolite, ³H-Tyr-DAla-Gly, eluted with water, and the radioactivity determined. The protein concentrations were determined by the Bradford procedure (Bradford, M.M. Analytical Biochem. 72:248-254 [1976]), and results of enkephalinase activities were expressed as fmoles substrate cleaved per min per mg protein.

The subject of assay [1] is ferret tracheal smooth muscle. Put plainly: Electrical field stimulation-induced contraction of isolated tracheal smooth muscle. Format: cell-based. To be noted: 5 Hz; leu-thiorphan 10⁻⁵ M, 15 min. On the procedure:
(§1) The tracheal rings were connected to strain gauges (Grass FT03) for continuous recording of isometric tension, and the rings were placed between two rectangular platinum electrodes (6 x 40 mm) for electrical field stimulation. The rings were initially stretched to a tension of 20 g for 30 seconds and were then allowed to equilibrate for 1 hour while resting tension was adjusted to 4 g (Skoogh, B-E. et al., J. Appl. Physiol. 53: 253-257 [1982]). During equilibration, the medium was changed every 15 minutes. […] Id.
Increasing concentrations of leu-thiorphan (10⁻¹¹ to 10⁻⁴ M) were added and the stimuli repeated to determine whether leu-thiorphan modulated electrical field stimulation-induced contractions. […] After determining control responses to electrical field stimulation (5 Hz), leu-thiorphan (10⁻⁵ M; 15 min) was added, the stimulus repeated, (DPro²,DTrp^7,9)substance P, the substance P antagonist (10⁻⁵ M; 15 min; Peninisula Labs) was added, and the stimulus was repeated.
Data were expressed as mean ± SE. For the dose-response curves to tachykinins the means between two groups at each concentration were analyzed by an unpaired t test. For the study of electrical field stimulation, responses were compared by one way analysis of variance and Newman-Keuls multiple range test. Significance was accepted at p<0.05.

Assay [2] concerns ferret tracheal smooth muscle. Put plainly: Isometric tension of isolated tracheal smooth muscle rings (contraction by peptides, effect of inhibitors). The format is cell-based. Here is the method: Twenty-seven ferrets were anesthetized with pentobarbital sodium (45-60 mg/kg, i.p.), and the trachea were removed. Transverse rings (8 mm long) were cut from the trachea and mounted in glass chambers filled with 14 ml of Krebs-Henseleit solution of the following composition (in mMoles/L): NaCl 118, KCl 5.9, CaCl₂ 2.5, MgSO₄ 1.2, NaH₂PO4 1.2, NaHCO₃ 25.5, glucose 5.6, 0.1% bovine serum albumin, and penicillin-streptomycin (100 Units/ml). The soluiton was maintained at 37°C and was aerated continuously in a mixture of 95% O₂-5% CO₂, which produced a pH of 7.4. Six tracheal rings were studied concurrently.
as §1
The responsiveness to substance P (using concentrations ranging from 10⁻⁸ M to 10⁻⁵ M) and to leu-thiorphan and cumulative dose-response curves to substance P (Peninsula Labs) were obtained. Each succeeding concentration of substance P was added after contraction reached a plateau. After completion of the first dose-response curve to substance P, leu-thiorphan (10⁻⁵ M, Squibb Pharmaceutical) was added to the organ bath. Following a 15 minute incubation, a second dose-response curve to substance P was obtained.
The N-terminal fragment, substance P₁₋₉ was studied because enkephalinase cleaves substance P between the 9 and 10 positions (Matsas, R. et al., Proc. Natl. Acad. Sci. [USA] 80: 3111-3115 [1983]), generating that fragment. (10⁻⁵ M Peninsula Labs). Experiments were also carried out with (DPro², DTrp^7,9)-substance P (10⁻⁵ M) (Peninsula Labs), a substance P antagonist (Hakanson, R. et al., Br. J. Pharmac. 77: 697-700 [1982]) by adding the antagonist after the response to substance P (10⁻⁶ M) and leu-thiorphan (10⁻⁵ M) reached a plateau.
Data were expressed as mean ± SE. For the dose-response curves to substance P, the means between two groups at each concentration were compared by a paired t test. For the studies of electrical field stimulation, responses were compared by one way analysis of variance and Newman-Keuls multiple range test. Significance was accepted at P < 0.05. […]

Assay [3] has as its system longitudinal ileal smooth muscle. In words: Contraction of longitudinal ileal smooth muscle. Format: cell-based, ferrets. To be noted: inhibitor 10⁻⁵ M. The source says:
Using methods similar to those with ferret airway smooth muscle, described in Example 7, longitudinal ileal smooth muscle was examined. […] Leu-thiorphan (10⁻⁵ M) shifted the dose response curve to lower concentrations by 1 log unit.

The target in assay [4] is T2, purified rat kidney enkephalinase (Rattus norvegicus, UniProt P07861).
T2 construct: purified rat kidney enkephalinase (50 ng in 150 ul 50 mM, pH7.4 HEPES buffer containing 0.02% Triton X-100); from tissue; host or cells: rat kidney
T2 sequence (P07861 1-750): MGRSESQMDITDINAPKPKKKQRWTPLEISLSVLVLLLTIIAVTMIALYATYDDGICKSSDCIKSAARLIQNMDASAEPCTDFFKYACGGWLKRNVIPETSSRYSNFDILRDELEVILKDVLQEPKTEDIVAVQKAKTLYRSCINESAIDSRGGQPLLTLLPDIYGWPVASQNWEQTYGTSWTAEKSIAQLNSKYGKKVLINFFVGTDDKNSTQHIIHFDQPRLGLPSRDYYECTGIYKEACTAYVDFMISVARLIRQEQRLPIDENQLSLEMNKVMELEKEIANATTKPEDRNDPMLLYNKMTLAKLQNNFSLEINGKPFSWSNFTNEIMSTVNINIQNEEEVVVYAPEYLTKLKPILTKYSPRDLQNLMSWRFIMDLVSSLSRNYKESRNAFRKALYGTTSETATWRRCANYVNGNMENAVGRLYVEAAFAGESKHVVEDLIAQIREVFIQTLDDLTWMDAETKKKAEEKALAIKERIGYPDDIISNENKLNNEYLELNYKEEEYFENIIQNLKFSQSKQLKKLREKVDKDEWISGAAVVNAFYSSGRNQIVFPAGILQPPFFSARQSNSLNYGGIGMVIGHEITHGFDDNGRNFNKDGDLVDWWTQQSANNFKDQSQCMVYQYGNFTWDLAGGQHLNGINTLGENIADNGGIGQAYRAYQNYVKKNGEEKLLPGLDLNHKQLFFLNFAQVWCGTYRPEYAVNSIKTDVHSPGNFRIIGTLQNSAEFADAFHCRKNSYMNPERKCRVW
Format: biochemical. To be noted: peptide 10⁻⁴M, 50 ng enzyme, 30 minutes at 37°C.

On to `CC(C)C[C@H](NC(=O)C(CS)Cc1ccccc1)C(=O)O` (some centres unmarked) [leu-thiorphan, Leucine-thiorphan], for which the Ki (usually a measure of affinity in units of concentration, obtained from inhibition or displacement) was 8.7 nM on enkephalinase (Epthelium membrane fraction); 3.3 nM at enkephalinase (Kidney); 2.8 nM at enkephalinase (Lung membrane fraction); 2.1 nM at enkephalinase (Muscle membrane fraction); 2.8 nM at enkephalinase (Submucosa membrane fraction); 2.1 nM at enkephalinase (Vagus/N. membrane fraction). The “response to electrical field stimulation, percent of control responses without added drugs” value in assay [1] was 118 ± 1.7%. Moreover, the “effect alone on resting tension” value in assay [2] (10⁻⁵ M) is “no significant effect on resting tension”. For the same compound, in assay [2] (concentrations up to 10⁻⁴ M), the “effect on resting tension” value is “did not alter resting tension in any experiment”. Besides, in assay [2] (inhibitor 10⁻⁵ M), the “shift of the dose-response curve to neurokinin A to lower concentrations” value is given as “two-log units”. For the same compound, the “shift of the dose-response curve to neurokinin B to lower concentrations” value in assay [2] (inhibitor 10⁻⁵ M) is “three-log units”. In addition, the “shift of the dose-response curve to substance P to lower concentrations” value in assay [2] (inhibitor 10⁻⁵ M) is reported as “approximately one log unit; also recorded: approximately one-log unit”. For the same compound, the “shift of the dose response curve to substance P to lower concentrations” value in assay [3] is listed as 1 log unit.

In the case of bombesin, the “fraction of the peptide degraded / hydrolyzed” value in assay [4] was found to be 80%.
